Data as given in ChEMBL document CHEMBL1201862, “PubChem BioAssay data set” (2004).
Activity calls are given as the source filed them.

Tests used:
cells [1] = assay: cells
Major prion protein = Major prion protein (Homo sapiens, UniProt P04156); type: functional, cell-based
[2] = target: T1, Oxysterols receptor LXR-beta (Homo sapiens, UniProt P55055); type: functional, cell-based;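 also: agonist activity at LXR measured by a cell-based luminescence readout across a dose range, run as a counterscreen for daf-12 agonists; HEK293 cells with Gal4-LXR fusion and GAL4-driven luciferase reporter; potency for activation of Gal4-LXR reporter so compounds are agonists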
T1 sequence (P55055 whole entry): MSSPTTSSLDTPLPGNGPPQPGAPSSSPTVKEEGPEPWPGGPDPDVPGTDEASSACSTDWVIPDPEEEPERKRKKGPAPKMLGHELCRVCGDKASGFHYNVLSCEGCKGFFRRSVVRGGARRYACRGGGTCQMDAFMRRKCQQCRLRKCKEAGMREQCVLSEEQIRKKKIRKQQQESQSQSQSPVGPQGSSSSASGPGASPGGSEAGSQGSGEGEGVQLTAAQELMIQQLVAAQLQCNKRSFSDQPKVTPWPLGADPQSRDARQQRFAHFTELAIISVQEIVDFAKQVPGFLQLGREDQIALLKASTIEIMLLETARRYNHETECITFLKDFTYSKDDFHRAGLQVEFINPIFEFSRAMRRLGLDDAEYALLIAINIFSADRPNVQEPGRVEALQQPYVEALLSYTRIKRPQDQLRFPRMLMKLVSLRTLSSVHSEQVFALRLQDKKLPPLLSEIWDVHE

[3] = target: Scavenger receptor class B member 1 (Mus musculus, UniProt Q61009); assay: blockers of DiI-HDL lipid transfer via SR-BI – cell-based, ldlA[mSR-BI] CHO, DiI fluorescence, dry powder, set 10, dose response (AID 624029); type: functional
[4] = target: Disintegrin and metalloproteinase domain-containing protein 17 (Homo sapiens, UniProt P78536); assay: inhibition of ADAM17 substrate cleavage – biochemical, quenched FRET substrate, counter-screen for ADAM10 exosite inhibitor project, dose response (AID 743253)
[5] = potency of ADAM10 substrate cleavage blockers – biochemical, QFRET, dose response (AID 743254);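 also: ADAM10 enzyme with the DM2 quenched FRET peptide as substrate; EDANS fluorescence gain as the protease cuts the substrate; inhibitor potency against ADAM10 proteolytic activity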
[6] = target: T2, Low molecular weight phosphotyrosine protein phosphatase (Homo sapiens, UniProt P24666); type: functional; conditions: read-out: IC50_Mean
T2 sequence (P24666 whole entry): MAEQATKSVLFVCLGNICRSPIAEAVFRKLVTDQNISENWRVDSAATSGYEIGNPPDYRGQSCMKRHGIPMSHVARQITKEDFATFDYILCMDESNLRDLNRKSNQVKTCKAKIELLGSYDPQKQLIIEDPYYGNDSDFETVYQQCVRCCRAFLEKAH

[7] = target: T3, Carboxy-terminal domain RNA polymerase II polypeptide A small phosphatase 1 (Homo sapiens, UniProt Q9GZU7); assay: CTDSP1 inhibitors, concentration-response, biochemical, absorbance readout, ultra-high-throughput screen actives (AID 540297); type: functional
T3 sequence (Q9GZU7 whole entry): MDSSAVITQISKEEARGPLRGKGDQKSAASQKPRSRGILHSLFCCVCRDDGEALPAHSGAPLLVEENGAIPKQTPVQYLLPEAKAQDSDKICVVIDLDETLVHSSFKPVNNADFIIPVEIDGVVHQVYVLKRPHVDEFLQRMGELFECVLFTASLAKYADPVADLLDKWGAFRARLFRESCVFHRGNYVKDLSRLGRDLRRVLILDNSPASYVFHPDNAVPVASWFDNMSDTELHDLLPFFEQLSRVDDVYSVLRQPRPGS

[8] = target: T2, Low molecular weight phosphotyrosine protein phosphatase; type: functional; conditions: read-out: IC50_Mean; remark: listed apart in the source
HeLa = assay: viability loss in HeLa cells – cell-based, ATP luminescence, cherry-pick samples, cytotoxicity control, dose response (AID 687004); type: functional; conditions: Homo sapiens
[9] = A Cell-Based Confirmatory Screen for Compounds that Inhibit VEEV, TC-83 (8).; type: functional
cells [10] = type: functional
[11] = target: Matrix metalloproteinase-14 (Homo sapiens, UniProt P50281); assay: Dose Response confirmation of uHTS hits for a small molecule inhibitors of MT1-MMP activation in a fluorescence assay set 1.; type: functional
Nonstructural protein 1 = Nonstructural protein 1 (Influenza A virus, UniProt Q194T2); type: functional, Influenza A virus (A/California/07/2009(H1N1))
[12] = THP-1 cell cytotoxicity, dose response, cytotoxicity control for non-replicating M. tuberculosis project (AID 489025); type: functional

Q: For CN(C)S(=O)(=O)c1ccc(N2CCCC2)c(C(=O)Nc2nc3ccccc3s2)c1, which IC50 (cells [1]) is on record?
A: > 138 µM (inactive)

Q: And the IC50 (Major prion protein)?
A: 10.4 µM (inactive)

Q: Which EC50 [2] does the source give for Nc1c(-c2cccs2)cnc2c(-c3ccc(F)cc3)cnn12 here?
A: > 67.5 µM (inactive)

Q: Which AC50 [3] does the source give for CC(C)NC(=O)Nc1ccc2c(c1)C(=O)N([C@@H](C)CO)C[C@H](C)[C@H](CN(C)S(=O)(=O)c1ccc(Cl)cc1)O2 here?
A: > 70 µM (inactive)

Q: Which IC50 [4] does the source give for O=C(CC1S/C(=N\c2ccccc2)N(Cc2ccccn2)C1=O)Nc1ccc(Br)cc1 (stereo not given) here?
A: > 69.5 µM (inactive)

Q: What about the IC50 [5] of the same compound?
A: 37.4 µM (inactive)

Q: For N=c1c2ccccc2nnn1-c1ccc(C(F)(F)F)cc1, which IC50 [6] is on record?
A: 18.8 µM (active)

Q: And the IC50 [7]?
A: 8.01 µM (active)

Q: And the IC50 [8]?
A: 12.8 µM (active)

Q: For C[C@@H]1CN([C@@H](C)CO)C(=O)c2cc(NC(=O)Nc3cccc4ccccc34)ccc2O[C@@H]1CN(C)C(=O)Nc1ccccc1, which AC50 (HeLa) is on record?
A: 252 nM (active)

Q: For CN1CCN(C)/C(=N/c2cc(Cl)c(C#N)cc2C(=O)Nc2ccccc2)C1, which IC50 [9] is on record?
A: < 260 nM (active)

Q: With COc1ccc(Nc2ccccc2N)cc1 as the compound, how does the IC50 (cells [10]) read?
A: 1.41 µM (active)

Q: What about the IC50 [11] of the same compound?
A: 8.32 µM (active)

Q: And the IC50 (Nonstructural protein 1)?
A: 42.8 µM (active)

Q: What about the CC50 [12] of the same compound?
A: 38.1 µM (active)
